Test results: patent US6117833A, “Bleaching compositions and method for bleaching substrates directly with air” (priority 1998, dated 2000)
“Also recorded” adds a separate entry of the source.

Key:
[1] = Bleaching of tea-stained (BC-1) swatches by aldehyde + NHPI + air in Tergotometer (change in reflectance); conditions: aldehyde 15 mM, NHPI 1 mM, carbonate buffer, 30 min, 25° C., 460 nm, average of 2 values (6 for * = Exceptional Bleaching Aldehyde)
Protocol: A general outline of the essential steps in our experimental protocol are shown below.
a) Measure the initial reflectance of the swatches (Ri).
b) Saturate the wash solution with air.
c) Wash, rinse and dry the swatches.
d) Measure the final reflectance of the swatches (Rf).
All work was conducted in a Tergotometer with 2L stainless steel pots. The swatches were dried flat on a rack in a Kenmore dryer. […] The conditions utilized were as follows:
Initiator N-Hydroxyphthalimide (NHPI, 1 mM)
Aldehyde Aldehyde (15 mM)
Each Tergotometer Pot was filled with 1 liter of milli-Q-water containing carbonate buffer solution which was saturated for 15 minutes with air under agitation at 25° C. Tea stained (BC-1) swatches were washed for 30 minutes in the presence of aldehyde, air and NHPI at pH=8 (25° C.). The corresponding controls (buffer alone, NHPI alone and aldehyde alone) were performed simultaneously. All swatches were rinsed twice for 3 minutes with agitation at 25° C. and dried flat on a rack in a Kenmore with soft heat for 30 minutes.
To quantify the degree of stain removal, the reflectance of 4 stained swatches (4 per pot) were measured before and after washing using a Gardner reflectometer (Model #2000) set at 460*nm (*UV filter). The change in reflectance (ΔR) was determined by taking the difference of the swatch before and after each washing. The standard deviation (σ) and ΔΔRave was assigned to each experimental group.
Rl =Initial reflectance of stained swatch before washing.
Rf =Final reflectance of stained swatch after washing.
ΔRaldehyde system+control -ΔRcontrol =ΔΔR
ΔΔRave =Represents the average bleaching by the aldehyde system.
In general, the larger the ΔΔRave value, the greater the bleaching and cleaning.
(σ)=[Σ^n aj -aa)^2 /N-I]^0.5
Σ^n =sum (aj -aa)^2 per measurement
N=number of measurements=8

[2] = Bleaching on BC-1 by 4-Ethylbenzaldehyde with various initiators; design: key to Δ(ΔR), #1 / Δ(ΔR), #2 / Δ(ΔR), #3 / Δ(ΔR), Average / ΔΔRave: Δ(ΔR): reflectance change of stained cloth relative to buffer ΔR; conditions: for cleaning / bleaching (in words): initiator alone or 4-EBA alone; for Δ(ΔR), Average / Δ(ΔR), #1 / Δ(ΔR), #2 / Δ(ΔR), #3: 1 mM, σav = 0.4; for Δ(ΔR), Average: average of #1-#3; for Δ(ΔR), #1: run #1; for Δ(ΔR), #2: run #2; for Δ(ΔR), #3: run #3
Protocol: A series of experiments were conducted to evaluate the bleaching effectiveness of NHPI and related imides. Table IV reports the effectiveness on tea stained cloth swatches by various imide initiators in combination with 4-ethylbenzaldehyde.
Value for Carbonate Buffer = ΔR
Value for Initiator = Δ(ΔR)
Value for 4EBA + Initiator = Δ(ΔR)
* = Statistically significant bleaching over buffer alone (σav

Row | SMILES | ΔΔRave on BC-1 at pH = 8 [1] | also measured
1 | O=CCCCC=O | 0.7 | 
2 | O=CC(O)CO (racemic) [DL-Glyceraldehyde] | -0.8 | 
3 | O=Cc1ccccc1S(=O)(=O)O [1-Formylbenzene-2-sulfonic acid] | 0.5 | 
4 | O=Cc1c(F)c(F)cc(F)c1F [2,3,5,6-Tetrafluorobenzaldehyde] | 0.3 | 
5 | Cc1cc(C)c(C=O)c(C)c1 [2,4,6-Trimethylbenzaldehyde] | 6.3 | 
6 | Cc1ccc(C=O)c(C)c1 [2,4-Dimethylbenzaldehyde] | 8.9 | 
7 | Cc1ccc(C)c(C=O)c1 [2,5-Dimethylbenzaldehyde] | 8.8 | 
8 | O=Cc1c(Cl)cccc1Cl [2,6-Dichlorobenzaldehyde] | 0.0 | 
9 | O=Cc1ccccc1Br [2-Bromobenzaldehyde] | 2.1 | 
10 | O=Cc1ccccc1Cl [2-Chlorobenzaldehyde] | 8.7 | 
11 | O=Cc1ccccc1F [2-Fluorobenzaldehyde] | 1.0 | 
12 | O=Cc1ccco1 [2-Furfural] | 0.2 | 
13 | O=Cc1ccccc1O [2-Hydroxybenzaldehyde] | 0.4 | 
14 | O=Cc1ncc[nH]1 [2-Imidazolecarboxy Aldehyde] | -0.5 | 
15 | COc1ccccc1C=O [2-Methoxybenzaldehyde] | 0.8 | 
16 | Cc1ccccc1C=O [2-Methylbenzaldehyde] | 5.8 | 
17 | O=Cc1ccccc1[N+](=O)[O-] [2-Nitrobenzaldehyde] | 0.1 | 
18 | CC(C=O)c1ccccc1 (stereo not drawn) [2-Phenylpropionaldehyde] | 0.1 | 
19 | O=Cc1ccccc1C(F)(F)F [2-Trifluoromethylbenzaldehyde] | 10.2 | 
20 | Cc1ccc(C=O)cc1C [3,4-Dimethylbenzaldehyde] | 10.3 | 
21 | O=Cc1cc(Cl)cc(Cl)c1 [3,5-Dichlorobenzaldehyde] | -0.2 | 
22 | O=Cc1cc(F)cc(F)c1 [3,5-Difluorobenzaldehyde] | 0.9 | 
23 | COc1cc(C=O)cc(OC)c1 [3,5-Dimethoxybenzaldehyde] | 1.4 | 
24 | Cc1cc(C)cc(C=O)c1 [3,5-Dimethylbenzaldehyde] | 9.3 | 
25 | O=Cc1cc([N+](=O)[O-])cc([N+](=O)[O-])c1 [3,5-Dinitrobenzaldehyde] | 0.1 | 

Row | SMILES | ΔΔRave on BC-1 at pH = 8 [1] | also measured
26 | Cc1ccc(Oc2cccc(C=O)c2)cc1 [3-(4-Methylphenoxy)benzaldehyde] | 0.0 | 
27 | O=Cc1cccc(Br)c1 [3-Bromobenzaldehyde] | 3.2 | 
28 | O=Cc1cccc(Cl)c1 [3-Chlorobenzaldehyde] | 1.9 | 
29 | O=Cc1cccc(F)c1 [3-Fluorobenzaldehyde] | 0.6 | 
30 | O=Cc1cccc(O)c1 [3-Hydroxybenzaldehyde] | 0.8 | 
31 | COc1cccc(C=O)c1 [3-Methoxybenzaldehyde] | 0.6 | 
32 | Cc1cccc(C=O)c1 [3-Methylbenzaldehyde] | 10.0 | 
33 | O=Cc1cccc([N+](=O)[O-])c1 [3-Nitrobenzaldehyde] | 1.2 | 
34 | O=Cc1cccc(Oc2ccccc2)c1 [3-Phenoxybenzaldehyde] | 1.1 | 
35 | O=Cc1cccc(C(F)(F)F)c1 [3-Trifluoromethylbenzaldehyde] | 3.1 | 
36 | O=Cc1ccc(Br)cc1 [4-Bromobenzaldehyde] | 0.1 | 
37 | O=Cc1ccc(C(=O)O)cc1 [4-Carboxybenzaldehyde] | -0.1 | 
38 | O=Cc1ccc(Cl)cc1 [4-Chlorobenzaldehyde] | -0.1 | 
39 | CN(C)c1ccc(C=O)cc1 [4-Dimethylaminobenzaldehyde] | 1.0 | 
40 | CCOc1ccc(C=O)cc1 [4-Ethoxybenzaldehyde] | 0.4 | 
41 | CCc1ccc(C=O)cc1 [4-Ethylbenzaldehyde] | 11.5 | cleaning / bleaching (in words) [2]: small and inconsistent; also recorded: do not effectively clean stubborn tea stains
42 | O=Cc1ccc(F)cc1 [4-Fluorobenzaldehyde] | 1.6 | 
43 | O=CN1CCOCC1 [4-Formylmorpholine] | 0.1 | 
44 | CCCCCCOc1ccc(C=O)cc1 [4-Hexyloxybenzaldehyde] | 0.5 | 
45 | CC(C)(C)c1cc(C=O)cc(C(C)(C)C)c1O [4-Hydroxy-3,5-t-Butylbenzaldehyde] | 0.0 | 
46 | O=Cc1ccc(O)cc1 [4-Hydroxybenzaldehyde] | 0.7 | 
47 | CC(C)c1ccc(C=O)cc1 [4-Isopropylbenzaldehyde] | 1.5 | 
48 | COc1ccc(C=O)cc1C [4-Methoxy-3-Methylbenzaldehyde] | 0.4 | 
49 | COc1ccc(C=O)cc1 [4-Methoxybenzaldehyde] | 1.2 | 
50 | Cc1ccc(C=O)cc1 [4-Methylbenzaldehyde] | 8.3 | 

Row | SMILES | ΔΔRave on BC-1 at pH = 8 [1] | also measured
51 | O=Cc1ccc([N+](=O)[O-])cc1 [4-Nitrobenzaldehyde] | 0.3 | 
52 | CCCOc1ccc(C=O)cc1 [4-Propyoxybenzaldehyde] | 0.2 | 
53 | O=Cc1ccc(C(F)(F)F)cc1 [4-Trifluoromethylbenzaldehyde] | 0.3 | 
54 | CC(C)(C)c1ccc(C=O)cc1 [4-t-Butylbenzaldehyde] | 1.3 | 
55 | O=Cc1ccc(S(=O)(=O)O)o1 [5-Formylfuran-2 sulfonic Acid] | -3.3 | 
56 | O=Cc1ccccc1 [Benzaldehyde] | 1.5 | 
57 | C/C=C/C=O [Crotonaldehyde] | 0.7 | 
58 | O=C[C@H](O)[C@@H](O)[C@H](O)[C@H](O)CO [D-Glucose] | 0.6 | 
59 | O=CC=O [Glyoxal] | 0.6 | 
60 | CC(C)C=O [Isobutyraldehyde] | 0.4 | 
61 | O=C1C=CC(=O)N1O [NHMI] |  | Δ(ΔR), Average ([2]; initiator alone): 0.3; Δ(ΔR), #1 ([2]; initiator alone): 0.6; Δ(ΔR), #2 ([2]; initiator alone): 0.1; Δ(ΔR), #3 ([2]; initiator alone): 0.3
62 | O=C1c2ccccc2C(=O)N1O [NHPI, N-hydroxyphthalimide] |  | ΔΔRave ([2]; initiator alone): -0.2; cleaning / bleaching (in words) [2]: did not provide a cleaning benefit; Δ(ΔR), Average ([2]; initiator alone): -0.3; Δ(ΔR), #1 ([2]; initiator alone): -0.1; Δ(ΔR), #2 ([2]; initiator alone): 0.1; Δ(ΔR), #3 ([2]; initiator alone): -0.7
63 | O=C1CC(S(=O)(=O)O)C(=O)N1O (stereo not drawn) [NHSISA] |  | Δ(ΔR), Average ([2]; initiator alone): 0.2; Δ(ΔR), #1 ([2]; initiator alone): 0.2; Δ(ΔR), #2 ([2]; initiator alone): 0.5; Δ(ΔR), #3 ([2]; initiator alone): 0.0
64 | O=C1CCC(=O)N1O [NHSI] |  | Δ(ΔR), Average ([2]; initiator alone): 0.0; Δ(ΔR), #1 ([2]; initiator alone): 0.0; Δ(ΔR), #2 ([2]; initiator alone): 0.0; Δ(ΔR), #3 ([2]; initiator alone): 0.0
65 | O=Cc1ccccc1C=O [Phenyl-1,2-dicarboxyaldehyde] | 1.1 | 
66 | O=Cc1cccc(C=O)c1 [Phenyl-1,3-dicarboxyaldehyde] | 0.2 | 
67 | O=Cc1ccc(C=O)cc1 [Phenyl-1,4-dicarboxyaldehyde] | -1.1 | 
68 | CC1(C)CCCC(C)(C)N1[O] [TEMPO] |  | Δ(ΔR), Average ([2]; initiator alone): 1.8; Δ(ΔR), #1 ([2]; initiator alone): 1.8; Δ(ΔR), #2 ([2]; initiator alone): 1.8; Δ(ΔR), #3 ([2]; initiator alone): 1.9
69 | CCCC=O [n-Butyraldehyde] | 0.6 | 
70 | CCCCCCCCCC=O [n-Decylaldehyde] | 0.6 | 
71 | CCCCCCCCCCCC=O [n-Dodecylaldehyde] | 0.2 | 
72 | CCCCCCC=O [n-Heptyladehyde] | 0.8 | 
73 | CCCCCCCCCCC=O [n-Undecylaldehyde] | 0.0 | 
74 | O=C/C=C/c1ccccc1 [trans-Cinnamaldehyde] | 1.2 | 
75 | CCCCCC(C=O)=Cc1ccccc1 [α-Amylcinnamaldehyde] | 1.0 | 
